Columns and labels:
[1] = Determination of pKa of formulated lipids (TNS fluorescence assay in lipid nanoparticles); assay type: physicochemical; details: lipid nanoparticles (compound/DSPC/cholesterol/PEG-lipid), lipid formulated in LNP (lipid/DSPC/cholesterol/PEG-lipid), pH at half-maximal intensity
Procedure: As described elsewhere, the pKa of formulated lipids is correlated with the effectiveness of LNPs for delivery of nucleic acids (see Jayaraman et al, Angewandte Chemie, International Edition (2012), 51(34), 8529-8533; Semple et al, Nature Biotechnology 28, 172-176 (2010)). In some embodiments, the preferred range of pKa is ˜5 to ˜7. The pKa of each lipid is determined in lipid nanoparticles using an assay based on fluorescence of 2-(p-toluidino)-6-napthalene sulfonic acid (TNS). Lipid nanoparticles comprising compound of structure (I)/DSPC/cholesterol/PEG-lipid (50/10/38.5/1.5 or 47.5:10:40.7:1.8 mol %) in PBS at a concentration of 0.4 mM total lipid are prepared using the in-line process as described in Example 1. TNS is prepared as a 100 μM stock solution in distilled water. Vesicles are diluted to 24 μM lipid in 2 mL of buffered solutions containing 10 mM HEPES, 10 mM MES, 10 mM ammonium acetate, and 130 mM NaCl, where the pH ranged from 2.5 to 11. An aliquot of the TNS solution is added to give a final concentration of 1 μM and following vortex mixing fluorescence intensity is measured at room temperature in a SLM Aminco Series 2 Luminescence Spectrophotometer using excitation and emission wavelengths of 321 nm and 445 nm. A sigmoidal best fit analysis is applied to the fluorescence data and the pKa is measured as the pH giving rise to half-maximal fluorescence intensity.

[2] = system: luciferase expression in the liver; experiment: Luciferase mRNA in vivo evaluation using lipid nanoparticle compositions; design: species or system mice; details: LNP with FLuc mRNA, tail vein injection; for Liver Luc, *Determined at 0.5 mg/kg: 0.5 mg mRNA/kg (starred cells of the 0.3 mg/kg column), liver 4 hours after administration; for Liver Luc @ 0.3 mg/kg: 0.3 mg mRNA/kg; for Liver Luc @ 0.3 mg/kg / Liver Luc @ 1.0 mg/kg: ng luciferase/g liver 4 hours after administration; for Liver Luc @ 1.0 mg/kg: 1.0 mg mRNA/kg
Procedure: A lipid of structure (I), DSPC, cholesterol and PEG-lipid are solubilized in ethanol at a molar ratio of 50:10:38.5:1.5 or 47.5:10:40.7:1.8. Lipid nanoparticles (LNP) are prepared at a total lipid to mRNA weight ratio of approximately 10:1 to 40:1. Briefly, the mRNA is diluted to 0.2 mg/mL in 10 to 50 mM citrate buffer, pH 4 or 10 to 25 mM acetate buffer, pH 4. Syringe pumps are used to mix the ethanolic lipid solution with the mRNA aqueous solution at a ratio of about 1:5 to 1:3 (vol/vol) with total flow rates above 15 mL/min. The ethanol is then removed and the external buffer replaced with PBS by dialysis. Finally, the lipid nanoparticles are filtered through a 0.2 µm pore sterile filter.
Studies are performed in 6-8 week old female C57BL/6 mice (Charles River) 8-10 week old CD-1 (Harlan) mice (Charles River) according to guidelines established by an institutional animal care committee (ACC) and the Canadian Council on Animal Care (CCAC). Varying doses of mRNA-lipid nanoparticle are systemically administered by tail vein injection and animals euthanized at a specific time point (e.g., 4 hours) post-administration. Liver and spleen are collected in pre-weighed tubes, weights determined, immediately snap frozen in liquid nitrogen and stored at −80° C. until processing for analysis.
For liver, approximately 50 mg is dissected for analyses in a 2 mL FastPrep tubes (MP Biomedicals, Solon OH). ¼″ ceramic sphere (MP Biomedicals) is added to each tube and 500 μL of Glo Lysis Buffer—GLB (Promega, Madison WI) equilibrated to room temperature is added to liver tissue. Liver tissues are homogenized with the FastPrep24 instrument (MP Biomedicals) at 2×6.0 m/s for 15 seconds. Homogenate is incubated at room temperature for 5 minutes prior to a 1:4 dilution in GLB and assessed using SteadyGlo Luciferase assay system (Promega). Specifically, 50 μL of diluted tissue homogenate is reacted with 50 μL of SteadyGlo substrate, shaken for 10 seconds followed by 5 minute incubation and then quantitated using a CentroXS^3 LB 960 luminometer (Berthold Technologies, Germany). The amount of protein assayed is determined by using the BCA protein assay kit (Pierce, Rockford, IL). Relative luminescence units (RLU) are then normalized to total μg protein assayed. To convert RLU to ng luciferase a standard curve is generated with QuantiLum Recombinant Luciferase (Promega).
The FLuc mRNA (L-6107) from Trilink Biotechnologies will express a luciferase protein, originally isolated from the firefly, Photinus pyralis. FLuc is commonly used in mammalian cell culture to measure both gene expression and cell viability. It emits bioluminescence in the presence of the substrate, luciferin. This capped and polyadenylated mRNA is fully substituted with 5-methylcytidine and pseudouridine.
Representative compounds of the disclosure shown in Table 2 were formulated using the following molar ratio: 50% cationic lipid/10% distearoylphosphatidylcholine (DSPC)/38.5% Cholesterol/1.5% PEG lipid 2-[2-(ω-methoxy(polyethyleneglycol2000)ethoxy]-N,N-ditetradecyl acetamide) or 47.5% cationic lipid/10% DSPC/40.7% Cholesterol/1.8% PEG lipid. Relative activity was determined by measuring luciferase expression in the liver 4 hours following administration via tail vein injection as described in Example 1 or by measuring the amount of human IgG in mouse serum as described in example 2. The activity was compared at a dose of 1.0 or 0.5 or 0.3 mg mRNA/kg and expressed as ng luciferase/g liver measured 4 hours after administration, as described in Example 1 or as μg IgG/mL serum measured 24 hours after administration, as described in Example 2. Compound numbers in Table 2 refer to the compound numbers of Table 1.

pKa [1] | Structure (SMILES) | Liver Luc, *Determined at 0.5 mg/kg [2] | Liver Luc @ 0.3 mg/kg [2] | Liver Luc @ 1.0 mg/kg [2]
6.19 | CCCCCCCCCCN(CCCCCCCCCC)C(=O)CCCCCCCN(C)CCCCCCCC(=O)N(CCCCCCCCCC)CCCCCCCCCC [Compound I-6, 8,8′-(methylazanediyl)bis(N,N-didecyloctanamide)] | – | 20084 ± 5967 ng/g | 78367 ± 15904 ng/g
6.83 | CCCCCCCCCCCCCCCC(=O)N(CCCCCC)CCCCCCN(C)CCCCCCN(CCCCCC)C(=O)CCCCCCCCCCCCCCC [Compound I-9, N,N′-((methylazanediyl)bis(hexane-6,1-diyl))bis(N-hexylpalmitamide)] | – | 4337 ± 1394 ng/g | 21023 ± 12693 ng/g
6.02 | CCCCCCCCN(CCCCCCCC)C(=O)CCCCCCCCCN(CCCCCCO)CCCCCCCCCC(=O)N(CCCCCCCC)CCCCCCCC [Compound I-18, 10,10′-((6-hydroxyhexyl)azanediyl)bis(N,N-dioctyldecanamide)] | – | 7115 ± 2087 ng/g | 14879 ± 1595 ng/g
6.27 | CCCCCCCCCCN(CCCCCCCCCC)C(=O)CCCCCCCCCN(CCO)CCCCCCCCCC(=O)N(CCCCCCCCCC)CCCCCCCCCC [Compound I-20, 10,10′-((2-hydroxyethyl)azanediyl)bis(N,N-didecyldecanamide)] | 879 ± 365* ng/g | – | –
6.28 | CCCCCCCCCCN(CCCCCCCCCC)C(=O)CCCCCCCCCN(CCCCO)CCCCCCCCCC(=O)N(CCCCCCCCCC)CCCCCCCCCC [Compound I-25, 10,10′-((4-hydroxybutyl)azanediyl)bis(N,N-didecyldecanamide)] | – | 20276 ± 3044 ng/g | 64656 ± 24090 ng/g
6.22 | CCCCCCCCCCN(CCCCCCCCCC)C(=O)CCCCCCCCCN(CCCCCCCCCC(=O)N(CCCCCCCCCC)CCCCCCCCCC)CCN(C)C [Compound I-28, 10,10′-((2-(dimethylamino)ethyl)azanediyl)bis(N,N-didecyldecanamide)] | – | 6602 ± 2609 ng/g | 13298 ± 4040 ng/g
5.91 | CCCCCCCCCCN(CCCCCCCCCC)C(=O)CCCCCCCN(CCCCCCCC(=O)N(CCCCCCCCCC)CCCCCCCCCC)CCOCCOC [Compound I-46, 8,8′-((2-(2-methoxyethoxy)ethyl)azanediyl)bis(N,N-didecyloctanamide)] | – | 10201 ± 2440 ng/g | 52937 ± 8101 ng/g

The remaining lines, values behind:

Structure (SMILES) | pKa [1] | Liver Luc, *Determined at 0.5 mg/kg [2] | Liver Luc @ 0.3 mg/kg [2] | Liver Luc @ 1.0 mg/kg [2]
CCCCCCCCN(CCCCCCCC)C(=O)CCCCCN(CCO)CCCCCC(=O)N(CCCCCCCC)CCCCCCCC [Compound I-3, 6,6′-((2-hydroxyethyl)azanediyl)bis(N,N-dioctylhexanamide)] | 6.87 | 227 ± 138* ng/g | – | –
CCCCCCCCN(CCCCCCCC)C(=O)CCCCCCCN(C)CCCCCCCC(=O)N(CCCCCCCC)CCCCCCCC [Compound I-7, 8,8′-(methylazanediyl)bis(N,N-dioctyloctanamide)] | 6.43 | – | 16595 ± 836 ng/g | 81021 ± 24105 ng/g
CCCCCCCCN(CCCCCCCC)C(=O)CCCCCCCCCN(C)CCCCCCCCCC(=O)N(CCCCCCCC)CCCCCCCC [Compound I-8, 10,10′-(methylazanediyl)bis(N,N-dioctyldecanamide)] | 6.02 | – | 8743 ± 2153 ng/g | 37220 ± 15377 ng/g
CCCCCCCCCCN(CCCCCCCCCC)C(=O)CCCCCN(C)CCCCCC(=O)N(CCCCCCCCCC)CCCCCCCCCC [Compound I-10, 6,6′-(methylazanediyl)bis(N,N-didecylhexanamide)] | 6.77 | – | 10779 ± 2473 ng/g | 22622 ± 8189 ng/g
CCCCC/C=C\C/C=C\CCCCCCCC(=O)N(CCCCCC)CCCCCCN(C)CCCCCCN(CCCCCC)C(=O)CCCCCCC/C=C\C/C=C\CCCCC [Compound I-14, (9Z,9′Z,12Z,12′Z)—N,N′-((methylazanediyl)bis(hexane-6,1-diyl))bis(N-hexyloctadeca-9,12-dienamide)] | 6.59 | – | 2738 ± 728 ng/g | 5735 ± 2364 ng/g
CCCCC(CC)CN(CC(CC)CCCC)C(=O)CCCCCN(CCCCO)CCCCCC(=O)N(CC(CC)CCCC)CC(CC)CCCC (stereo not drawn) [Compound I-27, 6,6′-((4-hydroxybutyl)azanediyl)bis(N,N-bis(2-ethylhexyl)hexanamide)] | 6.56 | 21 ± 6* ng/g | – | –
CCCCCCCCCCNC(=O)CCCCN(CCCCCCCC(=O)N(CCCCCCCCCC)CCCCCCCCCC)CCCCCCCC(=O)N(CCCCCCCCCC)CCCCCCCCCC [Compound I-30, 8,8′-((5-(decylamino)-5-oxopentyl)azanediyl)bis(N,N-didecyloctanamide)] | 6.16 | – | 6567 ± 1534 ng/g | 19625 ± 2173 ng/g
CCCCCCCCCCN(CCCCCCCCCC)C(=O)CCCCCCCN(C)CCCCCCCC(=O)N(CCCCCCCC)CCCCCCCC [Compound I-55, N,N-didecyl-8-((8-(dioctylamino)-8-oxooctyl)(methyl)amino)octanamide] | 6.22 | – | 8244 ± 1599 ng/g | 30106 ± 13756 ng/g
CCCCCCCCCCN(CCCCCCCCCC)C(=O)CCCCCCCCCN(CCCCCCCCCC(=O)N(CCCCCCCCCC)CCCCCCCCCC)CCCn1ccnc1 [Compound I-57, 10,10′-((3-(1H-imidazol-1-yl)propyl)azanediyl)bis(N,N-didecyldecanamide)] | 6.24 | – | 476 ± 134 ng/g | 1456 ± 518 ng/g
CCCCCCCCCN(CCCCCCCCC)C(=O)CCCCCCCN(C)CCCCCCCC(=O)N(CCCCCCCCC)CCCCCCCCC [Compound I-58, 8,8′-(methylazanediyl)bis(N,N-dinonyloctanamide)] | 6.19 | – | 18664 ± 5438 ng/g | 73794 ± 14083 ng/g
CCCCCCCCCCN(CCCCCCCCCC)C(=O)CCCCCCCN(C)CCCCCCCC(=O)N(CCCCCCCCC)CCCCCCCCC [Compound I-59] | 6.27 | – | 10786 ± 1924 ng/g | 43489 ± 5698 ng/g
